Values of other authors in patent US20210155895A1, “Pluripotent Stem Cell-Derived 3D Retinal Tissue and Uses Thereof” (LINEAGE CELL THERAPEUTICS, INC., priority 2016, published 2021).

Experiments:
[1] = tested on: PR (photoreceptor) cells
[2] = tested on: histone H3; conditions: Koriyama et al. 2014
[3] = tested on: PR (photoreceptors); conditions: zaprinast 100 μM

Q: Which “time to PR cell death after application” value [1] does the source give for `CN(N=O)C(N)=O` [MNU, N-methyl, N-nitrosourea] here?
A: ≤ 7 days

Q: And the PR cell death ([1]; involving the caspase pathway)?
A: selective and progressive PR cell death

Q: With `CCCC(CCC)C(=O)O` [valproic acid] as the compound, how does the “effect on histone H3 acetylation” value [2] read?
A: induces histone H3 acetylation

Q: Which PR degeneration [3] does the source give for `CCCOc1ccccc1-c1nc2nn[nH]c2c(=O)[nH]1` [zaprinast] here?
A: induces PR degeneration at a level comparable to that observed in the mouse rd1 model

Q: What about the “effect on intracellular cGMP” value [3] of the same compound?
A: raises intracellular cGMP
